# Data as given in patent US9981976B2, “Piperidine substituted pyrazolo[1,5-A]pyrimidine derivatives with inhibitory activity on the replication of the respiratory syncytial virus (RSV)” (priority 2014, dated 2018).
# Columns and labels:
# [1] = system: rgRSV224 virus; assay: microbe, parasite or virus in culture; assay type: cell-based, respiratory syncytial virus (RSV); settings: human respiratory syncytial virus, HeLa, 72 h, read-out: RSV HELA pEC50, rgRSV224 virus (MOI=1), HeLa cells, GFP expression three days post-virus exposure (converted)
# [2] = system: HeLa cells; assay: Cytotoxicity in HeLa cells, ATP content (ATPlite kit); settings: three days incubation, CC50 = 50% concentration for cytotoxicity
# Method: Black 384-well clear-bottom microtiter plates (Corning, Amsterdam, The Netherlands) were filled via acoustic drop ejection using the echo liquid handler (Labcyte, Sunnyvale, Calif.). 200 nL of compound stock solutions (100% DMSO) were transferred to the assay plates. 9 serial 4-fold dilutions of compound were made, creating per quadrant the same compound concentration. The assay was initiated by adding 10 μL of culture medium to each well (RPMI medium without phenol red, 10% FBS-heat inactivated, 0.04% gentamycin (50 mg/mL). All addition steps are done by using a multidrop dispenser (Thermo Scientific, Erembodegem, Belgium). Next, rgRSV224 virus (MOI=1) diluted in culture medium was added to the plates. rgRSV224 virus is an engineered virus that includes an additional GFP gene (Hallak L K, Spillmann D, Collins P L, Peeples M E. Glycosaminoglycan sulfation requirements for respiratory syncytial virus infection; Journal of virology (2000), 74(22), 10508-13) and was in-licensed from the NIH (Bethesda, Md., USA). Finally, 20 μL of a HeLa cell suspension (3,000 cells/well) were plated. Medium, virus- and mock-infected controls were included in each test. The wells contain 0.05% DMSO per volume. Cells were incubated at 37° C. in a 5% CO2 atmosphere. Three days post-virus exposure, viral replication was quantified by measuring GFP expression in the cells by an in house developed MSM laser microscope (Tibotec, Beerse, Belgium). The EC50 was defined as the 50% inhibitory concentration for GFP expression. In parallel, compounds were incubated for three days in a set of white 384-well microtiter plates (Corning) and the cytotoxicity of compounds in HeLa cells was determined by measuring the ATP content of the cells using the ATPlite kit (Perkin Elmer, Zaventem, Belgium) according to the manufacturer's instructions. The CC50 was defined as the 50% concentration for cytotoxicity.
Structure (SMILES),EC50 [1],SI TOX HELA [2],melting point
"Cc1ccc2ncnc(N3CCCCC3c3cc4nc(N5CCC5)cc(C)n4n3)c2c1 (stereo not shown) [P21, 4-(2-(5-(azetidin-1-yl)-7-methylpyrazolo[1,5-a]pyrimidin-2-yl)-piperidin-1-yl)-6-methylquinazoline]",398 nM,<4.6,192.43 °C
"Cc1nnn(C)c1-c1nc(N2CCCCC2c2cc3nc(N4CCC4)cc(N4CCOCC4)n3n2)c2c(C)cccc2n1 (stereo not shown) [P73, 4-(5-(azetidin-1-yl)-2-(1-(2-(1,4-dimethyl-1H-1,2,3-triazol-5-yl)-5-methylquinazolin-4-yl)piperidin-2-yl)pyrazolo[1,5-a]pyrimidin-7-yl)morpholine]",126 nM,4.8,238.91 °C
"Cc1nc(N2CCCCC2c2cc3nc(N4CC(N)C4)c(C)cn3n2)c2c(C)cccc2n1 (stereo not shown) [P27, 1-(2-(1-(2,5-dimethylquinazolin-4-yl)piperidin-2-yl)-6-methyl-pyrazolo[1,5-a]pyrimidin-5-yl)azetidin-3-amine]",631 nM,4.5,176.85 °C
"Cc1nc2c(N3CCCCC3c3cc4nc(N5CCC5)cc(N5CCOCC5)n4n3)ncnc2s1 (stereo not shown) [P20, 4-(5-(azetidin-1-yl)-2-(1-(2-methylthiazolo[5,4-d]pyrimidin-7-yl)-piperidin-2-yl)pyrazolo[1,5-a]pyrimidin-7-yl)morpholine]",631 nM,5.4,229.8 °C
"Cc1ccc2ncnc(N3CCCCC3c3cc4nc(N5CC(O)C5)c(C)cn4n3)c2c1 (stereo not shown) [P12, 1-(6-methyl-2-(1-(6-methylquinazolin-4-yl)piperidin-2-yl)pyrazolo-[1,5-a]pyrimidin-5-yl)azetidin-3-ol]",200 nM,<4,233.08 °C
"COC(=O)N(C(=O)OC)c1nc(N2CCCCC2c2cc3nc(N4CCC4)cc(N4CCOCC4)n3n2)c2c(C)cccc2n1 (stereo not shown) [P28, dimethyl (4-{2-[5-(azetidin-1-yl)-7-(morpholin-4-yl)pyrazolo[1,5-a]-pyrimidin-2-yl]piperidin-1-yl}-5-methylquinazolin-2-yl)imidodicarbonate]",794 nM,<4,136.62 °C
"Cc1nc(N2CCCCC2c2cc3nc(N4CC(O)C4)c(C)cn3n2)c2c(C)cccc2n1 (stereo not shown) [P37, 1-(2-(1-(2,5-dimethylquinazolin-4-yl)piperidin-2-yl)-6-methyl-pyrazolo[1,5-a]pyrimidin-5-yl)azetidin-3-ol]",316 nM,4.3,–
"Cc1ccc2ncnc(N3CCCCC3c3cc4nc(N5CCC5)c(C)cn4n3)c2c1 (stereo not shown) [P11, 4-(2-(5-(azetidin-1-yl)-6-methylpyrazolo[1,5-a]pyrimidin-2-yl)-piperidin-1-yl)-6-methylquinazoline]",126 nM,<4.6,205.49 °C
"Cc1cccc2nc(C(N)=O)nc(N3CCCCC3c3cc4nc(N5CCC5)cc(N5CCOCC5)n4n3)c12 (stereo not shown) [P46, 4-(2-(5-(azetidin-1-yl)-7-morpholinopyrazolo[1,5-a]pyrimidin-2-yl)-piperidin-1-yl)-5-methylquinazoline-2-carboxamide]",316 nM,4.3,–
"Cc1ccc2nc(C)nc(N3CCCCC3c3cc4nc(N5CC(O)C5)c(C)cn4n3)c2c1 (stereo not shown) [P42, 1-(2-(1-(2,6-dimethylquinazolin-4-yl)piperidin-2-yl)-6-methyl-pyrazolo[1,5-a]pyrimidin-5-yl)azetidin-3-ol]",2510 nM,<4.6,–
"Cc1cn2nc(C3CCCCN3c3ncnc4cccc(C)c34)cc2nc1N1CC(O)C1 (stereo not shown) [P23, 1-(6-methyl-2-(1-(5-methylquinazolin-4-yl)piperidin-2-yl)pyrazolo-[1,5-a]pyrimidin-5-yl)azetidin-3-ol]",15.8 nM,<4.6,–
"Cc1ccc2nc(NS(C)(=O)=O)nc(N3CCCCC3c3cc4nc(N5CCC5)cc(N5CCOCC5)n4n3)c2c1 (stereo not shown) [P6, N-(4-(2-(5-(azetidin-1-yl)-7-morpholinopyrazolo[1,5-a]pyrimidin-2-yl)piperidin-1-yl)-6-methylquinazolin-2-yl)methanesulfonamide]",5.01 nM,<4.0,–
